# Results taken from PubChem BioAssay (NCI).
# Where “and” joins values, the source holds several entries; their conditions need not be identical. Equal entries are not always repeated.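 Dose response: 5 concentrations. Exposure: 48 h. Format: 96-well plates. Endpoint: linear interpolation; highest concentration if not reached. GI50 is the concentration that inhibits growth by half. Definition used: TGI = concentration required for complete inhibition of growth.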 *1 amine or outer side, *2 acyl side, *3 side chain or, on linkers, in order; H or OH if unused. Where a SMILES comes first, the peptide text is derived from it. Bridges are numbered along the chain shown (N, C = ends). [ ]: non-standard residue; d: D form. ξ: configuration not given here. X4 = CCC(C)C(N[*:1])C(O)CC(=O)O[C@H](C(=O)C(C)C(=O)[*:2])C(C)C; NMeY = CN[C@@H](Cc1ccc(O)cc1)C(=O)O; X9 = O=C([C@@H]1CC(O)CN1[*:1])[*:2]; ξNMeL = CNC(CC(C)C)C(=O)O; ξT = CC(O)C(N)C(=O)O
# Assays:
# Assay in all cases: NCI tumour cell line growth inhibition, 48 h
# [1] = test system: CCRF-CEM leukemia
# [2] = test system: COLO 205 colon
# [3] = test system: HCT-15 colon
# [4] = test system: K-562 leukemia
# [5] = test system: OVCAR-5 ovarian
# [6] = test system: SNB-75 CNS
# [7] = test system: SR leukemia
# [8] = test system: UACC-62 melanoma
Compound,GI50 [1],TGI [1],GI50 [2],TGI [2],GI50 [3],TGI [3],GI50 [4],TGI [4],GI50 [5],TGI [5],GI50 [6],TGI [6],GI50 [7],TGI [7],GI50 [8],TGI [8]
O=[N+]([O-])c1cccc(-c2nc3sccn3c2-c2ccnc(NCCCNS(=O)(=O)c3ccc(F)cc3)n2)c1,1.2 µM,7.81 µM,2.44 µM,8.24 µM,2.08 µM,9.79 µM,1.62 µM,> 100 µM,5.63 µM,> 100 µM,1.58 µM,6.07 µM,2.53 µM,> 100 µM,1.2 µM,4.21 µM
N#Cc1nc(-c2cccc(Br)c2)cc(-c2ccc(Nc3nc(N4CCCCC4)nc(N4CCCCC4)n3)cc2)c1N,0.587 µM,> 100 µM,1.99 µM,4.64 µM,1.72 µM,5.53 µM,2.07 µM,> 100 µM,2.06 µM,4.7 µM,1.36 µM,3.73 µM,1.29 µM,> 100 µM,1.5 µM,3.27 µM
CC1(C)CCSC(/C=C/c2ccccc2)=N1,–,> 100 µM,–,–,–,21.7 µM,–,> 100 µM,–,36.4 µM,–,–,–,–,–,–
O=C(Oc1ccccc1)c1cc(O)c(O)c(O)c1,1.28 µM,> 100 µM,18.9 µM,> 100 µM,5.98 µM,> 100 µM,5.78 µM,70.9 µM,25.2 µM,> 100 µM,7.41 µM,> 100 µM,–,–,8.45 µM,56.4 µM
COc1cc2c(/C=C3/C(=O)Nc4ccccc43)c(Cl)n(Cc3ccccc3)c2cc1C,29.1 µM,> 100 µM,31.8 µM,> 100 µM,> 100 µM,> 100 µM,–,–,> 100 µM,> 100 µM,–,–,–,–,> 100 µM,> 100 µM
OCCNc1nc(NCCO)nc(Nc2ccc(C3=NN(c4cc(Cl)cc(Cl)c4)C(c4ccc(Cl)cc4)C3)cc2)n1 (stereo not drawn),2.11 µM,5.46 µM,1.91 µM,3.84 µM,1.48 µM,2.8 µM,1.73 µM,3.74 µM,1.96 µM,4.43 µM,1.51 µM,3.06 µM,1.45 µM,3.31 µM,1.72 µM,3.37 µM
CCC(C)C1NC(=O)C(NC(=O)C(CC(C)C)N(C)C(=O)[C@@H]2CC(O)CN2)C(C)OC(=O)[C@H](Cc2ccc(OC)cc2)N(C)C(=O)[C@@H]2CCCN2C(=O)[C@H](CC(C)C)NC(=O)C(C)C(=O)[C@H](C(C)C)OC(=O)CC1O (stereo partly drawn) (H-[X9][ξNMeL][ξT][X4]LP[NMeY](Me); ester 3-C),–,–,–,0.0156 µM,0.147 µM,8.57 µM,–,0.114 µM and 0.131 µM,0.365 µM,0.559 µM and 1.49 µM,–,0.119 µM and 0.166 µM,–,> 100 µM,–,0.0231 µM and 0.0117 µM
COc1nccc(-c2c(-c3ccc(F)cc3)ncn2C2CCC(O)CC2)n1 (stereo not drawn),> 84.5 µM,> 100 µM,99.6 µM,> 100 µM,36.6 µM,> 100 µM,44.1 µM,> 100 µM,43.8 µM,> 100 µM,> 100 µM,> 100 µM,43 µM,> 100 µM,> 86.9 µM,> 100 µM
CCCCCCN1C(=O)/C(=c2\sc3n(c2=O)C2C(NN=3)N(CC)C(=O)N2CC)c2ccccc21 (stereo not drawn),2.5 µM,> 50 µM,2.21 µM,38.3 µM,1.62 µM,> 50 µM,1.89 µM,> 50 µM,2.03 µM,> 50 µM,0.762 µM,2.31 µM,1.73 µM,> 50 µM,2.89 µM,> 50 µM
Cc1c(C(=O)/C=C/c2ccc(O)cc2)nnn1-c1ccnc2c(C(F)(F)F)cccc12,4.54 µM,> 100 µM,5.68 µM,34.8 µM,15.1 µM,> 100 µM,2.64 µM,> 100 µM,> 100 µM,> 100 µM,8.81 µM,68.2 µM,2.29 µM,9.86 µM,18.7 µM,> 100 µM
COc1cc(N2CCC(N(C)C)CC2)ccc1Nc1ncc(Cl)c(Nc2ccccc2P(C)(C)=O)n1,–,> 100 µM,0.252 µM and 0.0658 µM,1.12 µM and 0.33 µM,2.8 µM and 1.48 µM,16.9 µM and > 9.67 µM,–,> 100 µM,0.351 µM and 0.198 µM,8.97 µM and > 10 µM,1.07 µM and 0.228 µM,2.69 µM and 0.82 µM,< 0.0113 µM and 0.0295 µM,–,3.07 µM and 0.775 µM,20.2 µM and > 5.16 µM
COc1ccc(/C=C/C(=O)c2ccc(Nc3ncnc4ccccc34)cc2)cc1OC,2.55 µM,7.01 µM,14.8 µM,> 100 µM,8.63 µM,> 100 µM,–,–,39.6 µM,> 100 µM,5.19 µM,48.3 µM,2.04 µM,6.36 µM,10.7 µM,27.9 µM
COC(=O)Nc1ccc2ccc3c(NC(=O)OC)ccc4ccc1c2c43 (tested in a mixture with another compound),6.04 µM,> 50 µM,6.08 µM,30.5 µM,2.63 µM,> 50 µM,3.29 µM,> 50 µM,13.9 µM,> 50 µM,12.6 µM,> 50 µM,2.51 µM,> 50 µM,5.83 µM,> 50 µM
CCCCCCC(C)CC(CCCCCC)NCCOC(=O)c1ccc([N+](=O)[O-])cc1 (stereo not drawn),–,12.6 µM and 18.3 µM,–,17.9 µM and 12.8 µM,–,33.1 µM and 26.7 µM,–,1.84 µM,–,> 100 µM and 50 µM,–,30.4 µM and 33.4 µM,–,–,–,28.7 µM and 26.6 µM
Clc1nc(Cl)c2ncn(C/C=C\Cn3cnc4c(Cl)nc(Cl)nc43)c2n1,0.739 µM,2.36 µM,2.09 µM,4.82 µM,1.64 µM,3.36 µM,3.1 µM,> 100 µM,5.52 µM,18.4 µM,2.73 µM,7.91 µM,–,–,2.04 µM,4.19 µM
N#Cc1c(NC(=O)c2cccs2)[n+]([O-])c2ccccc2[n+]1[O-],> 100 µM,> 100 µM,> 100 µM,> 100 µM,64.1 µM,> 100 µM,> 100 µM,> 100 µM,> 100 µM,> 100 µM,49.5 µM,> 100 µM,> 100 µM,> 100 µM,> 100 µM,> 100 µM
